Results from patent publication US9828375B2, “4-position substituted pyrazolopyrimidine derivative, and use thereof in drug preparation” (Guangxi Wuzhou Pharmaceuticals (Group) Co., Ltd., priority 2012, dated 2017).
pIC50: −log10 of the molar value.

What was measured:
FGFR2 = FGFR2 (Homo sapiens, UniProt P21802); experiment: Kinase inhibition activity test, isotope labeling: FGFR2; assay type: biochemical; conditions: for pIC50: ATP 90 μM, read-out: FGFR2 IC50 value (inhibitory activity value); for Activity inhibition rate FGFR2 (h) / inhibition at 10 µM: test compound at a concentration of 10 μM; for inhibition at 10 µM: read-out: Activity inhibition rate FGFR2 (h)
Protocol: (§1) The purpose of this experiment was to test the inhibitory activity of the compound of the invention for in vitro kinase with the isotope labeling method (the γ phosphate group on ATP was labeled). In this experiment, the in vitro activity inhibition of such kinases as FLT3, VEGFR2, FLT1, FLT4, RET, c-RAF, B-RAF, c-KIT, PDGFα, PDGFβ, FGFR2, FGFR1, EphA2, EphB2, SRC, ABL, ALK and Met was tested respectively. Staurosporine was reference molecule (or referred to as positive control). The kinase inhibition activity of the test compound was expressed by half-inhibitory concentration (IC50) or the kinase activity inhibition rate of the test compound at a concentration of 10 μM. The IC50 value could be obtained by calculating the kinase activity inhibition rate of the test compound at different concentrations.
(§2) 20 mM 3-(N-morpholinyl)propanesulfonic acid (MOPS); 1 mM ethylenediaminetetraacetic acid (EDTA), 0.01% Brij 35 (Brij-35), 5% glycerol, 0.1% mercaptoethanol, 1 mg/mL bovine serum albumin (BSA), 10 mM manganous dichloride solution (MnCl2), 0.1 mg/mL glutamic acid/tyrosine (4:1) polypeptide (poly(Glu, Tyr)4:1), 50 μM EAIYAAPFAKKK (substrate of FLT3), 0.33 mg/mL myelin basic protein (substrate of VEGFR2), 250 μM KKKSPGEYVNIEFG (substrate of FLT1(h)), 500 μM GGEEEEYFELVKKKK (substrate of FLT4(h)), 250 μM KKKSPGEYVNIEFG (substrate of RET), 0.66 mg/mL myelin basic protein (substrate of C-RAF), 250 μM GGMEDIYFEFMGGKKK (substrate of c-Kit), 250 μM GGMEDIYFEFMGGKKK (substrate of PDGFα), 250 μM KKKSPGEYVNIEFG (substrate of FGFR1), […] GGEEEEYFELVKKKK (substrate of SRC), 50 μM EAIYAAPFAKKK (substrate of ABL), 250 μM KKKSPGEYVNIEFG (substrate of ALK), 250 μM KKKSPGEYVNIEFG (substrate of Met(h)), 10 mM magnesium acetate and γ-^33 P-ATP solution, stop buffer (3% phosphate buffer), washing buffer (75 mM phosphate solution), methanol, Filtermat A membrane, FLT3, VEGFR2, FLT3, VEGFR2, FLT1, FLT4, RET, c-RAF, B-RAF, c-KIT, PDGFRα, PDGFRβ, FGFR2, FGFR1, EphA2, EphB2, SRC, ABL, ALK, Met and other kinases, and the test compounds.
(§3) Buffers (8 mM MOPS with pH value of 7.0, 0.2 mM EDTA and 10 mM MnCl2), (5-10 mU) kinases to be tested (FLT3, VEGFR2, FLT1, FLT4, RET, c-RAF, B-RAF, c-KIT, PDGFRα, PDGFRβ, FGFR2, FGFR1, EphA2, EphB2, SRC, ABL, ALK and Met), substrates of kinases to be tested (refer to experimental materials), 10 mM magnesium acetate and γ-^33 P-ATP solution, and test compounds at different concentrations were added to a reaction tube orderly. […] Reaction was terminated with 5 μL 3% phosphate buffer finally, and 10 μL reaction solution was titrated to the Filtermat A membrane; solution was washed for 3 times with 75 mM phosphate solution with each time lasting 5 minutes, and then washed once with methanol. Finally, the Filtermat A membrane was dried, and scintillation counting was performed on the membrane, with scintillation count reflecting the phosphorylation degree of the substrates, so that the activity inhibition of kinase could be characterized.

[1] = test system: human leukemia cell line MV4-11; experiment: In vitro tumor cell proliferation inhibition (MTT): MV4-11; assay type: cell-based
Description: (§4) The purpose of the experiment was to test the inhibition activity of the compounds of the invention for in vitro human tumor cell proliferation by the methyl thiazolyl tetrazolium (MTT) colorimetry.
(§5) Main reagents: RPMI-1640, fetal bovine serum, pancreatin, etc. were purchased from Gibco BRL Company (Invitrogen Corporation, USA) and IMDM medium that was purchased from American Type Culture Collection (ATCC). Methyl thiazolyl tetrazolium (MTT) and dimethyl sulfoxide (DMSO) were products from Sigma Company (USA). Pyrazolopyrimidine derivatives were composed by the inventor. During in vitro experiment, 100% DMSO was prepared into 10 mM storage solution, the solution was stored in a refrigerator at −20° C. for future use, and was diluted to the required concentration with complete culture solution before use.
(§6) Cell line and culture: Human leukemia cell line MV4-11, Jurkat, K562, human thyrophyma cell line TT, human gastric carcinoma cell line MKN-45, human malignant melanoma cell lines A375 and A875, human pancreatic carcinoma cell line panc-1, human cervical carcinoma cell line HELA, human colorectal carcinoma cell line HCT116, etc. were purchased from American type culture collection and were preserved by this laboratory. All leukemia cell lines (except MV4-11), gastric carcinoma cell lines and thyrophyma cell lines were cultured in RPMI-1640 complete medium containing 10% fetal bovine serum, 100 U/mL penicillin and 100 μg/mL streptomycin at 37° C. in 5% CO2. The remaining cell lines were cultured in DMEM complete medium containing 10% fetal bovine serum (containing 20% MV4-11 cell), 100 U/mL penicillin and 100 µg/mL streptomycin at 37° C. in 5% CO2.
(§7) Cell suspension with cell concentration of 1-2×10^4/mL was adjusted with the complete cell medium and inoculated in a 96-well plate, with each well filled with 200 μl cell suspension that was cultured overnight. On the next day, supernatant was sucked and abandoned (supernatant was sucked upon centrifugation of suspension cells), and then cells were processed with test compounds at gradient concentrations respectively. Meanwhile, a negative control group free from drug and a solvent control group with equal volume were set, and the DMSO concentration was 0.1%. Each dose group was provided with three wells and cultured at 37° C. in 5% CO2. After 72 hours, 20 μl 5 mg/mL MTT reagent was added to each well, and cultured for another 2 to 4 hours, the supernatant was abandoned; 150 μL DMSO was added to each well again, vibrated and mixed evenly for 15 minutes; the absorbance (A) values (proportional to living cell amount) were determined with a microplate reader (λ=570 nm) and averaged. […] Experiment was repeated for 3 times at least. Experimental data were expressed with means, data statistics were tested by t, and P<0.05 means that difference has a statistical significance. The cell proliferation inhibition effects of all compounds as follows are expressed by IC50 or inhibition rate.

[2] = test system: human leukemia cell line K562; experiment: In vitro tumor cell proliferation inhibition (MTT): K562; assay type: cell-based
Description: as §4, §5, §6, §7

VEGFR2 = VEGFR2 (Homo sapiens, UniProt P35968); experiment: Kinase inhibition activity test, isotope labeling (γ-33P-ATP): VEGFR2; assay type: biochemical; conditions: for pIC50: ATP 90 μM, read-out: VEGFR2 IC50 value (inhibitory activity value); for Activity inhibition rate VEGFR2 (h) / inhibition at 10 µM: test compound at a concentration of 10 μM; for inhibition at 10 µM: read-out: Activity inhibition rate VEGFR2 (h)
Protocol: as §1, §2, §3

[3] = test system: human pancreatic carcinoma cell line panc-1; experiment: In vitro tumor cell proliferation inhibition (MTT): panc-1; assay type: cell-based
Description: as §4, §5, §6, §7

[4] = test system: human leukemia cell line Jurkat; experiment: In vitro tumor cell proliferation inhibition (MTT): Jurkat; assay type: cell-based; conditions: 72 hours
Description: as §4, §5, §6, §7

Sequence of VEGFR2 (P35968 20-1356): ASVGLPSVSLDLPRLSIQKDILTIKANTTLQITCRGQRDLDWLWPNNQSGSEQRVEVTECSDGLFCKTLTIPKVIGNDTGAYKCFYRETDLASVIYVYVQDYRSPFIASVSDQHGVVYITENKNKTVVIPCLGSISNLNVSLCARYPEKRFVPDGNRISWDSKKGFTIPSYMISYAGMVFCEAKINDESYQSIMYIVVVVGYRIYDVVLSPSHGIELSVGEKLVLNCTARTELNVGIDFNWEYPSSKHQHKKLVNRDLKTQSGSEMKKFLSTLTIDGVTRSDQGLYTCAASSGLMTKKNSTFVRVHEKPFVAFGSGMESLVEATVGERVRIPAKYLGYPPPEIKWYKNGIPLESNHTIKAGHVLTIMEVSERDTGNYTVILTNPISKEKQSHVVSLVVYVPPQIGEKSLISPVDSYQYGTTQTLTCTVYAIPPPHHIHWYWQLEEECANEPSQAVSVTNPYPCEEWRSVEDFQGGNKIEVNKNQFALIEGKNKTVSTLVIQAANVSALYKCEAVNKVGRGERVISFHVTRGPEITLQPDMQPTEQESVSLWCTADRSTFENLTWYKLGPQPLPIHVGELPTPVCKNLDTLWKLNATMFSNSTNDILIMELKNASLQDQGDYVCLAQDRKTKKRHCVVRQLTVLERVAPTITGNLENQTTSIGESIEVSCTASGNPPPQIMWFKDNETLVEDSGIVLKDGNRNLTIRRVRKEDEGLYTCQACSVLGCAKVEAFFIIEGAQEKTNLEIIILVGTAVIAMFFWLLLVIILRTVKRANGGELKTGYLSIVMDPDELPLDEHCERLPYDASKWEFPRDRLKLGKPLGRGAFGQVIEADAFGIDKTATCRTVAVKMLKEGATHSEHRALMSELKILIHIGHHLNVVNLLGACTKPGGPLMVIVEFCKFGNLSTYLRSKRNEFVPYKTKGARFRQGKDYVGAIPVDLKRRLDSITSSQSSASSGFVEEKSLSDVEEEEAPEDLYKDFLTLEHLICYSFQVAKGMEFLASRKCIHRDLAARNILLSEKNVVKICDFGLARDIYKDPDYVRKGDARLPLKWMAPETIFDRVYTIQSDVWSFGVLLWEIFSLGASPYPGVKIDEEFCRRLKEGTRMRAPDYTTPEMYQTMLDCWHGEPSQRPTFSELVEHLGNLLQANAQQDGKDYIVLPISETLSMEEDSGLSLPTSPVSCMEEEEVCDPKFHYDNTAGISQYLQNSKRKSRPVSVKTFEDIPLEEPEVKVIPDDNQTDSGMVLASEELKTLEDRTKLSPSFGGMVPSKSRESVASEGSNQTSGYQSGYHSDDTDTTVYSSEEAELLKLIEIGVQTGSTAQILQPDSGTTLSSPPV
Sequence of FGFR2 (P21802 22-821): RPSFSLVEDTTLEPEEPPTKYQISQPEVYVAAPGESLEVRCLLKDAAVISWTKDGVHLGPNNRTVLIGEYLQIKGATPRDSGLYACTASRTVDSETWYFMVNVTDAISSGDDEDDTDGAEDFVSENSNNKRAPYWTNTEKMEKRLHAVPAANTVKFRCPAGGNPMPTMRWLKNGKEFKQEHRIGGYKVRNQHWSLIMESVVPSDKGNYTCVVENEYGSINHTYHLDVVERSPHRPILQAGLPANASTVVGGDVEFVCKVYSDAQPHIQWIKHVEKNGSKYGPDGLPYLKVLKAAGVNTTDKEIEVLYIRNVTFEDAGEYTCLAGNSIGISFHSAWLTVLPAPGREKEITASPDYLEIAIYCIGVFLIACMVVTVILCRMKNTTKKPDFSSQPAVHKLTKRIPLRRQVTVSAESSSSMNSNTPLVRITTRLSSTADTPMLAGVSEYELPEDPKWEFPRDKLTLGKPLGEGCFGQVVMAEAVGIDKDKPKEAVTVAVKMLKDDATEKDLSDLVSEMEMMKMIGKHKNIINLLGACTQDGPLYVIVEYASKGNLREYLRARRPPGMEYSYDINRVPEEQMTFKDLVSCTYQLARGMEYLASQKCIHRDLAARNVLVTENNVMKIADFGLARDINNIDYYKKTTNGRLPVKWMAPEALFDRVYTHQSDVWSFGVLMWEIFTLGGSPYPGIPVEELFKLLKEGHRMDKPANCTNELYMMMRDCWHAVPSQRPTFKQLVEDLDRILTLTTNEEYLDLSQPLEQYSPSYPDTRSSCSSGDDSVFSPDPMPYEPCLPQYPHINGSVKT

SMILES | pIC50 (FGFR2) | Activity inhibition rate FGFR2 (h) (FGFR2) [%] | pIC50 ([1]; 72 hours) | pIC50 ([2]; 72 hours) | pIC50 (VEGFR2) | Activity inhibition rate VEGFR2 (h) (VEGFR2) [%] | pIC50 ([3]; 72 hours) | pIC50 [4] | inhibition at 10 µM (FGFR2) [%] | pIC50 ([1]; Homo sapiens, MV4-11, 72 h) | pIC50 ([2]; Homo sapiens, K562, 72 hours) | inhibition at 10 µM (VEGFR2) [%] | pIC50 ([3]; Homo sapiens, PANC-1, 72 hours) | pIC50 ([4]; Homo sapiens, Jurkat)
CC(C)(C)c1cc(NC(=O)Nc2ccc(Oc3ncnc4[nH]ncc34)c(F)c2)no1 [4a-31] | > 5.00 | >50 | 9.40 | 5.00 to 5.52 | 7.96 | 100 | 5.00 to 5.52 | 5.21 | – | – | – | – | – | –
O=C(Nc1cccc(Nc2ncnc3[nH]ncc23)c1)Nc1ccc(F)c(Cl)c1 [4b-1] | – | – | – | – | – | – | – | – | 22 | > 4.30 | 5.46 | 93 | > 4.30 | > 4.30
O=C(Nc1ccc(Oc2ncnc3[nH]ncc23)cc1)Nc1ccc(Cl)c(C(F)(F)F)c1 [4a-2] | 5.74 | 80 | 8.52 | > 4.30 | 7.92 | 100 | > 4.30 | 5.06 | – | – | – | – | – | –
COc1ccc(NC(=O)Nc2ccc(NC(=O)N3C=NC=C4NNC=C43)cc2)cc1 [4b-6, 1-(4-(1H-pyrazolopyrimidine-4-amido)phenyl)-3-(4-methoxyphenyl)urea] | – | – | – | – | – | – | – | – | 32 | 6.14 | > 4.30 | 95 | > 4.30 | > 4.30
CC(C)c1cccc(NC(=O)Nc2ccc(Oc3ncnc4[nH]ncc34)c(F)c2)c1 [4a-7, 1-(4-((1H-pyrazolopyrimidine-4-yl)oxy)-3-fluorophenyl)-3-(3-isopropylphenyl)urea] | – | 51 | 7.96 | > 4.30 | 7.49 | 100 | > 4.30 | > 4.30 | – | – | – | – | – | –
O=C(Nc1ccc(Oc2ncnc3[nH]ncc23)c(F)c1)Nc1ccc(Cl)c(C(F)(F)F)c1 [4a-10, 1-(4-((1H-pyrazolopyrimidine-4-yl)oxy)-3-fluorophenyl)-3-(4-chloro-3-(trifluoromethyl)phenyl)urea] | – | 53 | 8.05 | > 4.30 | 7.68 | 100 | > 4.30 | 5.00 | – | – | – | – | – | –
O=C(Nc1ccc(Sc2ncnc3[nH]ncc23)cc1)Nc1ccc(C(F)(F)F)cc1 [4c-1] | – | – | – | – | – | – | – | – | > 50 | 7.92 | – | 100 | > 4.30 | > 4.30
O=C(Nc1ccc(Oc2ncnc3[nH]ncc23)cc1)Nc1ccc(C(F)(F)F)cc1Cl [4a-13] | – | 13 | 7.74 | > 4.30 | 7.43 | 100 | > 4.30 | > 4.30 | – | – | – | – | – | –
O=C(Nc1ccc(Oc2ncnc3[nH]ncc23)cc1)Nc1ccc(N2CCOCC2)cc1 [4a-16, 1-(4-((1H-pyrazolopyrimidine-4-yl)oxy)phenyl)-3-(4-morpholinylphenyl)urea] | – | – | – | – | – | – | – | – | – | 7.05 | > 4.30 | 91 | > 4.30 | > 4.30
O=C(Nc1ccc(NC(=O)N2C=NC=C3NNC=C32)cc1)Nc1ccc(Cl)c(C(F)(F)F)c1 [4b-5, 1-(4-(1H-pyrazolopyrimidine-4-amido)phenyl)-3-(4-chloro-3-(trifluoromethyl)phenyl)urea] | – | – | – | – | – | – | – | – | 52 | 7.30 | – | 97 | – | –
O=C(Nc1ccc(Sc2ncnc3[nH]ncc23)cc1)Nc1cccc(C(F)(F)F)c1 [4c-2] | – | >50 | 7.41 | – | – | 100 | > 4.30 | > 4.30 | – | – | – | – | – | –

Results, then the compound that gave them:

pIC50 (FGFR2) | Activity inhibition rate FGFR2 (h) (FGFR2) [%] | pIC50 ([1]; 72 hours) | pIC50 ([2]; 72 hours) | pIC50 (VEGFR2) | Activity inhibition rate VEGFR2 (h) (VEGFR2) [%] | pIC50 ([3]; 72 hours) | pIC50 [4] | inhibition at 10 µM (FGFR2) [%] | pIC50 ([1]; Homo sapiens, MV4-11, 72 h) | pIC50 ([2]; Homo sapiens, K562, 72 hours) | inhibition at 10 µM (VEGFR2) [%] | pIC50 ([3]; Homo sapiens, PANC-1, 72 hours) | pIC50 ([4]; Homo sapiens, Jurkat) | SMILES
– | 100 | 6.49 | > 4.30 | 7.55 | 100 | > 4.30 | > 4.30 | – | – | – | – | – | – | O=C(Nc1ccccc1)Nc1ccc(Oc2ncnc3[nH]ncc23)cc1 [4a-15, 1-(4-((1H-pyrazolopyrimidine-4-yl)oxy)phenyl)-3-phenylurea]
– | >50 | 9.40 | > 4.30 | 7.85 | 100 | > 4.30 | – | – | – | – | – | – | – | CC(C)(C)c1cc(NC(=O)Nc2ccc(Oc3ncnc4[nH]ncc34)cc2)n(-c2ccccc2)n1 [4a-24]
> 5.00 | >50 | 9.52 | 5.00 to 5.52 | 7.92 | 100 | 5.00 to 5.52 | > 4.30 | – | – | – | – | – | – | CC(C)(C)c1cc(NC(=O)Nc2ccc(Oc3ncnc4[nH]ncc34)cc2)on1 [4a-25]
– | – | – | – | 7.92 | – | – | – | > 50 | 9.52 | 5.00 to 5.52 | 100 | 5.00 to 5.52 | 5.00 to 5.52 | CC(C)(C)c1cc(NC(=O)Nc2ccc(Oc3ncnc4[nH]ncc34)cc2)no1 [4a-26]
– | 17 | 6.91 | > 4.30 | – | 92 | > 4.30 | – | – | – | – | – | – | – | C[C@@H](NC(=O)Nc1ccc(Oc2ncnc3[nH]ncc23)cc1)c1ccccc1 [4a-19, (R)-1-(4-((1H-pyrazolopyrimidine-4-yl)oxy)phenyl)-3-(1-phenethyl)urea]
